According to patent US20020090380A1, “Novel formulation comprising thymol useful in the treatment of drug resistant bacterial infections” (priority 2000, published 2002):
Like-named read-outs stand apart in the source and are kept apart here.

What was measured:
E. coli CA 8000 (WT) = format: cell-based, Escherichia coli
[1] = system: lomefloxacin resistant cells of E. coli; format: cell-based, Escherichia coli
Nal^R mutants of E. coli = format: cell-based, Escherichia coli; conditions: 5 μg/ml
[2] = system: Lom^R mutants of Mycobacterium smegmatis; format: cell-based; conditions: Lom^R mutants isolated in medium with 20 μg/ml lomefloxacin
[3] = system: Ethidium bromide resistant strain of Mycobacterium smegmetis; format: cell-based

C[C@@H]1CN(c2c(F)c(N)c3c(=O)c(C(=O)O)cn(C4CC4)c3c2F)C[C@H](C)N1 [Sparfloxacin]
Growth in poison agar medium (E. coli CA 8000 (WT); CA 8000 (WT), 5 μg/ml, Table 2): − | Growth in poison agar medium (E. coli CA 8000 (WT); CA 8000 (WT), 20 μg/ml, Table 4): − | Growth in poison agar medium ([1]; CAL 101, 20 μg/ml): + | Growth in poison agar medium ([1]; CAL 102, 20 μg/ml): + | Growth in poison agar medium ([1]; CAL 103, 20 μg/ml): + | Growth in poison agar medium ([1]; CAL 104, 20 μg/ml): + | Growth in poison agar medium ([1]; CAL 105, 20 μg/ml): + | Growth in poison agar medium ([1]; CAL 106, 20 μg/ml): + | Growth in poison agar medium ([1]; CAL 107, 20 μg/ml): + | Growth in poison agar medium ([1]; CAL 108, 20 μg/ml): + | Growth in poison agar medium (Nal^R mutants of E. coli; CAN 101): + | Growth in poison agar medium (Nal^R mutants of E. coli; CAN 102): + | Growth in poison agar medium (Nal^R mutants of E. coli; CAN 103): + | Growth in poison agar medium (Nal^R mutants of E. coli; CAN 104): + | Growth in poison agar medium (Nal^R mutants of E. coli; CAN 105): + | Growth in poison agar medium (Nal^R mutants of E. coli; CAN 106): + | Growth in poison agar medium (Nal^R mutants of E. coli; CAN 107): + | Growth in poison agar medium (Nal^R mutants of E. coli; CAN 108): + | Growth in poison agar medium (Nal^R mutants of E. coli; CAN 109): + | Growth in poison agar medium (Nal^R mutants of E. coli; CAN 110): + | Growth in poison agar medium (Nal^R mutants of E. coli; CAN 111): + | Growth in poison agar medium (Nal^R mutants of E. coli; CAN 112): + | Growth in poison agar medium (Nal^R mutants of E. coli; CAN 113): + | Growth in poison agar medium (Nal^R mutants of E. coli; CAN 114): + | Growth in poison agar medium (Nal^R mutants of E. coli; CAN 115): + | Growth in poison agar medium (Nal^R mutants of E. coli; CAN 116): + | Growth in poison agar medium (Nal^R mutants of E. coli; CAN 117): + | Growth in poison agar medium (Nal^R mutants of E. coli; CAN 118): + | Growth in poison agar medium (Nal^R mutants of E. coli; CAN 119): + | Growth in poison agar medium (Nal^R mutants of E. coli; CAN 120): + | Growth in poison agar medium (Nal^R mutants of E. coli; CAN 121): + | Growth in poison agar medium (Nal^R mutants of E. coli; CAN 122): + | Growth in poison agar medium (Nal^R mutants of E. coli; CAN 123): + | Growth in poison agar medium (Nal^R mutants of E. coli; CAN 124): + | Growth in poison agar medium (Nal^R mutants of E. coli; CAN 125): + | Growth in poison agar medium (Nal^R mutants of E. coli; CAN 126): +

CCn1cc(C(=O)O)c(=O)c2cc(F)c(N3CCNC(C)C3)c(F)c21 (stereo not shown) [Lomefloxacin, lomefloxacin]
Growth in poison agar medium (E. coli CA 8000 (WT)): − | concentration upto which the mutants were resistant [2]: ≤ 60 µg/mL | Growth in poison agar medium ([1]; CAL 101, 1.5 μg/ml): + | Growth in poison agar medium ([1]; CAL 102, 1.5 μg/ml): + | Growth in poison agar medium ([1]; CAL 103, 1.5 μg/ml): + | Growth in poison agar medium ([1]; CAL 104, 1.5 μg/ml): + | Growth in poison agar medium ([1]; CAL 105, 1.5 μg/ml): + | Growth in poison agar medium ([1]; CAL 106, 1.5 μg/ml): + | Growth in poison agar medium ([1]; CAL 107, 1.5 μg/ml): + | Growth in poison agar medium ([1]; CAL 108, 1.5 μg/ml): + | Growth in poison agar medium (Nal^R mutants of E. coli; CAN 101): − | Growth in poison agar medium (Nal^R mutants of E. coli; CAN 102): − | Growth in poison agar medium (Nal^R mutants of E. coli; CAN 103): − | Growth in poison agar medium (Nal^R mutants of E. coli; CAN 104): − | Growth in poison agar medium (Nal^R mutants of E. coli; CAN 105): − | Growth in poison agar medium (Nal^R mutants of E. coli; CAN 106): − | Growth in poison agar medium (Nal^R mutants of E. coli; CAN 107): − | Growth in poison agar medium (Nal^R mutants of E. coli; CAN 108): − | Growth in poison agar medium (Nal^R mutants of E. coli; CAN 109): − | Growth in poison agar medium (Nal^R mutants of E. coli; CAN 110): − | Growth in poison agar medium (Nal^R mutants of E. coli; CAN 111): − | Growth in poison agar medium (Nal^R mutants of E. coli; CAN 112): − | Growth in poison agar medium (Nal^R mutants of E. coli; CAN 113): − | Growth in poison agar medium (Nal^R mutants of E. coli; CAN 114): − | Growth in poison agar medium (Nal^R mutants of E. coli; CAN 115): − | Growth in poison agar medium (Nal^R mutants of E. coli; CAN 116): − | Growth in poison agar medium (Nal^R mutants of E. coli; CAN 117): − | Growth in poison agar medium (Nal^R mutants of E. coli; CAN 118): − | Growth in poison agar medium (Nal^R mutants of E. coli; CAN 119): − | Growth in poison agar medium (Nal^R mutants of E. coli; CAN 120): − | Growth in poison agar medium (Nal^R mutants of E. coli; CAN 121): − | Growth in poison agar medium (Nal^R mutants of E. coli; CAN 122): − | Growth in poison agar medium (Nal^R mutants of E. coli; CAN 123): − | Growth in poison agar medium (Nal^R mutants of E. coli; CAN 124): − | Growth in poison agar medium (Nal^R mutants of E. coli; CAN 125): − | Growth in poison agar medium (Nal^R mutants of E. coli; CAN 126): −

CCn1cc(C(=O)O)c(=O)c2cc3c(cc21)OCO3 [Oxolinic Acid, oxolinic acid]
Growth in poison agar medium (E. coli CA 8000 (WT); CA 8000 (WT), 5 μg/ml, Table 2): − | Growth in poison agar medium (E. coli CA 8000 (WT); CA 8000 (WT), 5 μg/ml, Table 4): − | Growth in poison agar medium ([1]; CAL 101, 5 μg/ml): + | Growth in poison agar medium ([1]; CAL 102, 5 μg/ml): + | Growth in poison agar medium ([1]; CAL 103, 5 μg/ml): + | Growth in poison agar medium ([1]; CAL 104, 5 μg/ml): + | Growth in poison agar medium ([1]; CAL 105, 5 μg/ml): + | Growth in poison agar medium ([1]; CAL 106, 5 μg/ml): + | Growth in poison agar medium ([1]; CAL 107, 5 μg/ml): + | Growth in poison agar medium ([1]; CAL 108, 5 μg/ml): + | Growth in poison agar medium (Nal^R mutants of E. coli; CAN 101): − | Growth in poison agar medium (Nal^R mutants of E. coli; CAN 102): − | Growth in poison agar medium (Nal^R mutants of E. coli; CAN 103): − | Growth in poison agar medium (Nal^R mutants of E. coli; CAN 104): − | Growth in poison agar medium (Nal^R mutants of E. coli; CAN 105): − | Growth in poison agar medium (Nal^R mutants of E. coli; CAN 106): + | Growth in poison agar medium (Nal^R mutants of E. coli; CAN 107): + | Growth in poison agar medium (Nal^R mutants of E. coli; CAN 108): + | Growth in poison agar medium (Nal^R mutants of E. coli; CAN 109): + | Growth in poison agar medium (Nal^R mutants of E. coli; CAN 110): + | Growth in poison agar medium (Nal^R mutants of E. coli; CAN 111): + | Growth in poison agar medium (Nal^R mutants of E. coli; CAN 112): − | Growth in poison agar medium (Nal^R mutants of E. coli; CAN 113): + | Growth in poison agar medium (Nal^R mutants of E. coli; CAN 114): + | Growth in poison agar medium (Nal^R mutants of E. coli; CAN 115): + | Growth in poison agar medium (Nal^R mutants of E. coli; CAN 116): + | Growth in poison agar medium (Nal^R mutants of E. coli; CAN 117): + | Growth in poison agar medium (Nal^R mutants of E. coli; CAN 118): + | Growth in poison agar medium (Nal^R mutants of E. coli; CAN 119): − | Growth in poison agar medium (Nal^R mutants of E. coli; CAN 120): − | Growth in poison agar medium (Nal^R mutants of E. coli; CAN 121): + | Growth in poison agar medium (Nal^R mutants of E. coli; CAN 122): + | Growth in poison agar medium (Nal^R mutants of E. coli; CAN 123): + | Growth in poison agar medium (Nal^R mutants of E. coli; CAN 124): + | Growth in poison agar medium (Nal^R mutants of E. coli; CAN 125): + | Growth in poison agar medium (Nal^R mutants of E. coli; CAN 126): +

CN(C)[C@@H]1C(O)=C(C(N)=O)C(=O)[C@@]2(O)C(O)=C3C(=O)c4c(O)cccc4[C@@](C)(O)[C@H]3C[C@@H]12 [Tetracycline]
concentration against which the strain is resistant (mdr) [3]: 10 µg/mL
